Experimental data reported in ChEMBL document CHEMBL1201862, “PubChem BioAssay data set” (2004).
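Tested at 5 concentrations; 48 h exposure; 96-well plates; endpoints linearly interpolated, else capped at highest concentration. Abbreviation: GI50, concentration required for 50% inhibition of growth.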 The source made the active and inactive calls. No stated cut-off is given here; in the data, active = GI50 up to about 1.1 µM and inactive = higher.

How the values were obtained:
Test in all cases: NCI-60 cell line screen, 48 h
MDA-MB-231 = tested on: MDA-MB-231
SF-268 = tested on: SF-268
HL-60 = tested on: HL-60
NCI-H226 = tested on: NCI-H226
NCI/ADR-RES = tested on: NCI/ADR-RES
OVCAR-3 = tested on: OVCAR-3
SK-MEL-2 = tested on: SK-MEL-2
IGROV-1 = tested on: IGROV-1
COLO 205 = tested on: COLO 205
MOLT-4 = tested on: MOLT-4
HOP-92 = tested on: HOP-92
ACHN = tested on: ACHN
MCF7 = tested on: MCF7
NCI-H23 = tested on: NCI-H23
EKVX = tested on: EKVX
UO-31 = tested on: UO-31
RXF 393 = tested on: RXF 393
KM12 = tested on: KM12
CCRF-CEM = tested on: CCRF-CEM
SR = tested on: SR
HCC 2998 = tested on: HCC 2998
NCI-H522 = tested on: NCI-H522
HCT-116 = tested on: HCT-116
T47D = tested on: T47D
786-0 = tested on: 786-0
Malme-3M = tested on: Malme-3M
A498 = tested on: A498
U-251 = tested on: U-251
OVCAR-4 = tested on: OVCAR-4
NCI-H460 = tested on: NCI-H460
OVCAR-5 = tested on: OVCAR-5
MDA-MB-435 = tested on: MDA-MB-435
SF-295 = tested on: SF-295
K562 = tested on: K562
A549 = tested on: A549
HOP-62 = tested on: HOP-62
Hs-578T = tested on: Hs-578T
OVCAR-8 = tested on: OVCAR-8
SF-539 = tested on: SF-539
SNB-19 = tested on: SNB-19
M14 = tested on: M14
UACC-62 = tested on: UACC-62
PC-3 = tested on: PC-3
SK-MEL-28 = tested on: SK-MEL-28
SW-620 = tested on: SW-620
DU-145 = tested on: DU-145
SNB-75 = tested on: SNB-75
HT-29 = tested on: HT-29
LOX IMVI = tested on: LOX IMVI
TK-10 = tested on: TK-10
UACC-257 = tested on: UACC-257
HCT-15 = tested on: HCT-15
RPMI-8226 = tested on: RPMI-8226
BT-549 = tested on: BT-549
SK-MEL-5 = tested on: SK-MEL-5
CAKI-1 = tested on: CAKI-1
SK-OV-3 = tested on: SK-OV-3
SN12C = tested on: SN12C

Measured: GI50

CCOC(=O)c1nc2ccc(C(F)(F)F)cc2nc1Nc1ccc(OC)cc1
> 100 µM: HCT-15
inactive: MDA-MB-231 17.7 µM | SF-268 46.2 µM | HL-60 > 100 µM | NCI-H226 32.5 µM | NCI/ADR-RES 63.2 µM | OVCAR-3 27.7 µM | SK-MEL-2 71.9 µM | IGROV-1 36.6 µM | COLO 205 > 100 µM | MOLT-4 > 100 µM | HOP-92 12 µM | ACHN 55 µM | MCF7 > 100 µM | NCI-H23 49.1 µM | EKVX 98.9 µM | UO-31 > 100 µM | RXF 393 22.1 µM | KM12 > 100 µM | CCRF-CEM > 100 µM | SR > 100 µM | HCC 2998 > 100 µM | NCI-H522 36.5 µM | HCT-116 56.4 µM | T47D > 100 µM | 786-0 25.8 µM | Malme-3M > 100 µM | A498 44.8 µM | U-251 27.5 µM | OVCAR-4 18.6 µM | NCI-H460 41.1 µM | OVCAR-5 > 100 µM | MDA-MB-435 > 100 µM | SF-295 26.9 µM | K562 68.2 µM | A549 50.1 µM | HOP-62 24.3 µM | Hs-578T 35.2 µM | OVCAR-8 > 100 µM | SF-539 33 µM | SNB-19 33.6 µM | M14 84.1 µM | UACC-62 55.7 µM | PC-3 49.7 µM | SK-MEL-28 > 100 µM | SW-620 > 100 µM | DU-145 > 100 µM | SNB-75 93.5 µM | HT-29 > 100 µM | LOX IMVI > 100 µM | TK-10 > 100 µM | UACC-257 > 100 µM | RPMI-8226 > 100 µM | BT-549 27.9 µM | SK-MEL-5 54.7 µM

CN(C)/C=N/S(=O)(=O)c1nn2c(C=O)c(-c3ccc(Cl)cc3)nc2s1
inactive: MDA-MB-231 2.11 µM | SF-268 3.46 µM | NCI-H226 4.25 µM | NCI/ADR-RES 2.22 µM | OVCAR-3 1.49 µM | SK-MEL-2 7.11 µM | COLO 205 1.28 µM | HOP-92 2.34 µM | ACHN 1.15 µM | NCI-H23 2.34 µM | EKVX 3.28 µM | RXF 393 1.51 µM | KM12 3.63 µM | HCC 2998 5.25 µM | T47D 1.67 µM | 786-0 1.25 µM | Malme-3M 1.47 µM | A498 16.2 µM | U-251 2.95 µM | OVCAR-4 1.81 µM | NCI-H460 6.28 µM | OVCAR-5 1.75 µM | MDA-MB-435 2.16 µM | SF-295 14.4 µM | A549 8.26 µM | HOP-62 13.2 µM | Hs-578T 3.43 µM | OVCAR-8 1.31 µM | SF-539 2.13 µM | SNB-19 14.3 µM | UACC-62 3.91 µM | PC-3 2.46 µM | SK-MEL-28 1.62 µM | DU-145 2.12 µM | SNB-75 11.2 µM | LOX IMVI 1.25 µM | SK-OV-3 15.8 µM | TK-10 1.5 µM | UACC-257 2.7 µM | SK-MEL-5 1.58 µM | SN12C 2.23 µM
active: MOLT-4 0.52 µM | MCF7 0.897 µM | UO-31 1.02 µM | CCRF-CEM 0.228 µM | SR 0.767 µM | NCI-H522 0.557 µM | HCT-116 0.693 µM | CAKI-1 0.995 µM | K562 0.403 µM | M14 0.962 µM | SW-620 0.444 µM | HT-29 0.196 µM | RPMI-8226 0.785 µM | BT-549 0.713 µM
1.61 µM: HCT-15
